This passage reports IC50 results from patent publication US20190284136A1, “INDOLINE DERIVATIVES” (ViiV HEALTHCARE UK LIMITED, priority 2016, published 2019).

The assay concerns HIV. Description: Table 1 IC50 of the examples (assay method not given; patent concerns inhibiting HIV replication). The note with it: Human immunodeficiency virus 1. It is filed as cell-based.
The IC50 is the concentration that inhibits the measured activity by half. Higher therefore signals lower potency. Turning to `Cc1cc2c(c(-c3cc(F)c4c(c3C)CCCO4)c1[C@H](OC(C)(C)C)C(=O)O)CCN2C(=O)c1ccc(C(F)(F)F)cc1` (atropisomer, axis not shown) [Example 46, (S)-2-(tert-Butoxy)-2-((R)-4-(8-fluoro-5-methylchroman-6-yl)-6-methyl-1-(4-(trifluoromethyl)benzoyl)indolin-5-yl)acetic acid], it took 4 nM to reach half-maximal inhibition (IC50).

The compound `COc1cccc(C(=O)N2CCc3c2cc(C)c([C@H](OC(C)(C)C)C(=O)O)c3-c2cc(F)c3c(c2C)CCCO3)c1OC` (atropisomer, axis not shown) [Example 84, (S)-2-(tert-Butoxy)-2-((R)-1-(2,3-dimethoxybenzoyl)-4-(8-fluoro-5-methylchroman-6-yl)-6-methylindolin-5-yl)acetic acid] gave an IC50 of 41 nM.

The compound `Cc1ccc(-c2c3c(cc(C)c2[C@H](OC(C)(C)C)C(=O)O)N(C(=O)c2ccc(F)cc2Cl)CC3)cc1` [Example 19, (S)-2-(tert-Butoxy)-2-(1-(2-chloro-4-fluorobenzoyl)-6-methyl-4-(p-tolyl)indolin-5-yl)acetic acid] registered a concentration for half-maximal inhibition (IC50) of 5 nM.

`Cc1cc2c(c(-c3cc(F)c4c(c3C)CCCO4)c1[C@H](OC(C)(C)C)C(=O)O)CCN2C(=O)c1c(F)cccc1F` (atropisomer, axis not shown) [Example 111, (S)-2-(tert-Butoxy)-2-((R)-1-(2,6-difluorobenzoyl)-4-(8-fluoro-5-methylchroman-6-yl)-6-methylindolin-5-yl)acetic acid] returned an IC50 of 43 nM.

The compound `Cc1cc2c(c(-c3cc(F)c4c(c3C)CCCO4)c1[C@H](OC(C)(C)C)C(=O)O)CCN2C(=O)c1ccc2c(c1)CCO2` (atropisomer, axis not shown) [Example 127, (S)-2-(tert-Butoxy)-2-((R)-1-(2,3-dihydrobenzofuran-5-carbonyl)-4-(8-fluoro-5-methylchroman-6-yl)-6-methylindolin-5-yl)acetic acid] gave an IC50 of 2 nM.

`COc1cccc(OC)c1C(=O)N1CCc2c1cc(C)c([C@H](OC(C)(C)C)C(=O)O)c2-c1cc(F)c2c(c1C)CCCO2` (atropisomer, axis not shown) [Example 79, (S)-2-(tert-Butoxy)-2-((R)-1-(2,6-dimethoxybenzoyl)-4-(8-fluoro-5-methylchroman-6-yl)-6-methylindolin-5-yl)acetic acid] showed a half-maximal inhibitory concentration (IC50) of 55 nM.

Turning to `Cc1ccc(-c2c3c(cc(C)c2[C@H](OC(C)(C)C)C(=O)O)N(C(=O)c2cc(F)ccc2C)CC3)cc1` [Example 33], the IC50 came to 13 nM. Compared with the last compound, the IC50 is about 4.2-fold lower.

`Cc1ccc(C(=O)N2CCc3c2cc(C)c([C@H](OC(C)(C)C)C(=O)O)c3-c2cc(F)c3c(c2C)CCCO3)cc1F` (atropisomer, axis not shown) [Example 73, (S)-2-(tert-Butoxy)-2-((R)-1-(3-fluoro-4-methylbenzoyl)-4-(8-fluoro-5-methylchroman-6-yl)-6-methylindolin-5-yl)acetic acid] yielded a 50% inhibitory concentration (IC50) of 6 nM.

`Cc1ccc(-c2c3c(cc(C)c2C(OC(C)(C)C)C(=O)O)N(C(=O)N2CCCCC2)CC3)cc1` (stereo not drawn) [Example 6, 2-(tert-Butoxy)-2-(6-methyl-1-(piperidine-1-carbonyl)-4-(p-tolyl)indolin-5-yl)acetic acid] yielded an IC50 of 369 nM.

`COc1ccc(C(=O)N2CCc3c2cc(C)c([C@H](OC(C)(C)C)C(=O)O)c3-c2cc(F)c3c(c2C)CCCO3)c(C)c1` (atropisomer, axis not shown) [Example 168, (S)-2-(tert-Butoxy)-2-((R)-4-(8-fluoro-5-methylchroman-6-yl)-1-(4-methoxy-2-methylbenzoyl)-6-methylindolin-5-yl)acetic acid] had an IC50 of 13 nM.

`Cc1cc2c(c(-c3cc(F)c4c(c3C)CCCO4)c1[C@H](OC(C)(C)C)C(=O)O)CCN2C(=O)c1ccc(F)cc1C(F)(F)F` (atropisomer, axis not shown) [Example 64, (S)-2-(tert-Butoxy)-2-((R)-1-(4-fluoro-2-(trifluoromethyl)benzoyl)-4-(8-fluoro-5-methylchroman-6-yl)-6-methylindolin-5-yl)acetic acid] yielded a 50% inhibitory concentration (IC50) of 5 nM. This IC50 is about 2.6-fold lower than that of the compound before.

`COc1c(F)cccc1Cn1ccc2c(-c3cc(F)c4c(c3C)CCCO4)c([C@H](OC(C)(C)C)C(=O)O)c(C)cc21` (atropisomer, axis not shown) [Example 200, (S)-2-(tert-Butoxy)-2-((R)-1-(3-Fluoro-2-methoxybenzyl)-4-(8-fluoro-5-methylchroman-6-yl)-6-methyl-1H-indol-5-yl)acetic acid] registered an IC50 of 34 nM.

In the case of `Cc1cc2c(c(-c3cc(F)c4c(c3C)CCCO4)c1[C@H](OC(C)(C)C)C(=O)O)CCN2C(=O)c1cc(C(F)(F)F)ccc1F` (atropisomer, axis not shown) [Example 155, (S)-2-(tert-Butoxy)-2-((R)-1-(2-fluoro-5-(trifluoromethyl)benzoyl)-4-(8-fluoro-5-methylchroman-6-yl)-6-methylindolin-5-yl)acetic acid], the half-maximal inhibitory concentration (IC50) amounted to 72 nM.

As for `COc1ccc(C)cc1C(=O)N1CCc2c1cc(C)c([C@H](OC(C)(C)C)C(=O)O)c2-c1cc(F)c2c(c1C)CCCO2` (atropisomer, axis not shown) [Example 99, (S)-2-(tert-Butoxy)-2-((R)-4-(8-fluoro-5-methylchroman-6-yl)-1-(2-methoxy-5-methylbenzoyl)-6-methylindolin-5-yl)acetic acid], the IC50 was 4 nM.

`Cc1cc2c(c(-c3cc(F)c4c(c3C)CCCO4)c1[C@H](OC(C)(C)C)C(=O)O)CCN2C(=O)c1cccc(C(F)(F)F)c1F` (atropisomer, axis not shown) [Example 160, (S)-2-(tert-Butoxy)-2-((R)-1-(2-fluoro-3-(trifluoromethyl)benzoyl)-4-(8-fluoro-5-methylchroman-6-yl)-6-methylindolin-5-yl)acetic acid] displayed an IC50 of 14 nM.

`COc1cc(C(=O)N2CCc3c2cc(C)c([C@H](OC(C)(C)C)C(=O)O)c3-c2ccc(C)cc2)cc(F)c1F` [Example 12, (S)-2-(tert-Butoxy)-2-(1-(3,4-difluoro-5-methoxybenzoyl)-6-methyl-4-(p-tolyl)indolin-5-yl)acetic acid] gave an IC50 of 4 nM.

As for `Cc1ccc(-c2c3c(cc(C)c2[C@H](OC(C)(C)C)C(=O)O)N(C(=O)C2CCCCC2)CC3)cc1` [Example 41, (S)-2-(tert-Butoxy)-2-(1-(cyclohexanecarbonyl)-6-methyl-4-(p-tolyl)indolin-5-yl)acetic acid], it took 17 nM to reach half-maximal inhibition (IC50).

The compound `Cc1cc2c(c(-c3cc(F)c4c(c3C)CCCO4)c1[C@H](OC(C)(C)C)C(=O)O)CCN2C(=O)C1CCCc2ccccc21` (stereo partly drawn) [Example 105, (2S)-2-(tert-Butoxy)-2-((4R)-4-(8-fluoro-5-methylchroman-6-yl)-6-methyl-1-(1,2,3,4-tetrahydronaphthalene-1-carbonyl)indolin-5-yl)acetic acid] had an IC50 of 21 nM.

`COc1ccc(C(=O)N2CCc3c2cc(C)c([C@H](OC(C)(C)C)C(=O)O)c3-c2cc(F)c3c(c2C)CCCO3)cc1F` (atropisomer, axis not shown) [Example 74, (S)-2-(tert-butoxy)-2-((R)-1-(3-fluoro-4-methoxybenzoyl)-4-(8-fluoro-5-methylchroman-6-yl)-6-methylindolin-5-yl)acetic acid]: inhibition was half-maximal at 5 nM (IC50).

Consider `Cc1ccc(-c2c3c(cc(C)c2C(OC(C)(C)C)C(=O)O)N(S(=O)(=O)N2CCCCC2)CCC3)cc1` (stereo not drawn) [Example 213, 2-(tert-Butoxy)-2-(7-methyl-1-(piperidin-1-ylsulfonyl)-5-(p-tolyl)-1,2,3,4-tetrahydroquinolin-6-yl)acetic acid], for which the IC50 was 3410 nM.

The compound `Cc1ccc(F)cc1C(=O)N1CCc2c1cc(C)c([C@H](OC(C)(C)C)C(=O)O)c2-c1cc(F)c2c(c1C)CCCO2` (atropisomer, axis not shown) [Example 80, (S)-2-(tert-Butoxy)-2-((R)-1-(5-fluoro-2-methylbenzoyl)-4-(8-fluoro-5-methylchroman-6-yl)-6-methylindolin-5-yl)acetic acid] yielded a 50% inhibitory concentration (IC50) of 4 nM. This IC50 is about 850-fold lower than that of the compound before.

With `COc1ccc(C(=O)N2CCc3c2cc(C)c([C@H](OC(C)(C)C)C(=O)O)c3-c2cc(F)c3c(c2C)CCCO3)cc1Cl` (atropisomer, axis not shown) [Example 124, (S)-2-(tert-Butoxy)-2-((R)-1-(3-chloro-4-methoxybenzoyl)-4-(8-fluoro-5-methylchroman-6-yl)-6-methylindolin-5-yl)acetic acid], the IC50 turned out to be 3 nM. The IC50 values of the last two compounds are within 1.5-fold of each other.

In the case of `Cc1ccc(F)c(C(=O)N2CCc3c2cc(C)c([C@H](OC(C)(C)C)C(=O)O)c3-c2cc(F)c3c(c2C)CCCO3)c1` (atropisomer, axis not shown) [Example 55, (S)-2-(tert-Butoxy)-2-((R)-1-(2-fluoro-5-methylbenzoyl)-4-(8-fluoro-5-methylchroman-6-yl)-6-methylindolin-5-yl)acetic acid], half-maximal inhibition (IC50) required 6 nM.

`Cc1ccc(-c2c3c(cc(C)c2[C@H](OC(C)(C)C)C(=O)O)N(C(=O)c2ccc(F)c(F)c2)CC3)cc1` [Example 42, (S)-2-(tert-Butoxy)-2-(1-(3,4-difluorobenzoyl)-6-methyl-4-(p-tolyl)indolin-5-yl)acetic acid] yielded a half-inhibitory concentration (IC50) of 5 nM.

`COc1ccc(C(=O)N2CCc3c2cc(C)c([C@H](OC(C)(C)C)C(=O)O)c3-c2cc(C)c3c(c2C)CCCO3)cc1C` (atropisomer, axis not shown) [Example 194, (S)-2-(tert-Butoxy)-2-((R)-4-(5,8-dimethylchroman-6-yl)-1-(4-methoxy-3-methylbenzoyl)-6-methylindolin-5-yl)acetic acid] returned a half-maximal inhibitory concentration (IC50) of 43 nM.

Take `COc1cccc(C(=O)N2CCc3c2cc(C)c([C@H](OC(C)(C)C)C(=O)O)c3-c2ccc(C)cc2)c1F` [Example 20, (S)-2-(tert-Butoxy)-2-(1-(2-fluoro-3-methoxybenzoyl)-6-methyl-4-(p-tolyl)indolin-5-yl)acetic acid]: the half-maximal inhibitory concentration (IC50) was 66 nM.

With `COc1ccc(C(=O)N2CCc3c2cc(C)c([C@H](OC(C)(C)C)C(=O)O)c3-c2cc(F)c3c(c2C)CCCO3)c(Cl)c1` (atropisomer, axis not shown) [Example 128, (S)-2-(tert-Butoxy)-2-((R)-1-(2-chloro-4-methoxybenzoyl)-4-(8-fluoro-5-methylchroman-6-yl)-6-methylindolin-5-yl)acetic acid], the IC50 stood at 5 nM.
